Measured values: patent publication US4479943A, “3-Demethoxyistamycin B, the 2"-N-formimidoyl derivative thereof and pharmaceutical composition containing same” (Zaidan Hojin Biseibutsu Kagaku Kenkyu Kai, priority 1982, dated 1984)
Values after ≈ are worked out from the molar mass of the structure shown.

Experiments:
[1] = system: Pseudomonas aeruginosa TI-13; test: Antibacterial MIC, standard serial dilution; type: cell-based; conditions: nutrient agar, 37° C., 17 hours, as free base
[2] = system: Escherichia coli K-12 R388; test: Antibacterial MIC, standard serial dilution; type: cell-based; conditions: nutrient agar, 37° C., 17 hours, as free base
[3] = system: Pseudomonas aeruginosa 99; test: Antibacterial MIC, standard serial dilution; type: cell-based; conditions: nutrient agar, 37° C., 17 hours, as free base
Escherichia coli W677 = test: Antibacterial MIC, standard serial dilution; type: cell-based; conditions: nutrient agar, 37° C., 17 hours, as free base
[4] = system: Pseudomonas aeruginosa H11; test: Antibacterial MIC, standard serial dilution; type: cell-based; conditions: nutrient agar, 37° C., 17 hours, as free base
[5] = system: Pseudomonas aeruginosa GN315; test: Antibacterial MIC, standard serial dilution; type: cell-based; conditions: nutrient agar, 37° C., 17 hours, as free base
[6] = system: Staphylococcus aureus FDA 209P; test: Antibacterial MIC, standard serial dilution; type: cell-based; conditions: nutrient agar, 37° C., 17 hours, as free base
[7] = system: Escherichia coli K-12 ML1630; test: Antibacterial MIC, standard serial dilution; type: cell-based; conditions: nutrient agar, 37° C., 17 hours, as free base
[8] = system: Pseudomonas aeruginosa 21-75; test: Antibacterial MIC, standard serial dilution; type: cell-based; conditions: nutrient agar, 37° C., 17 hours, as free base
Sarcina lutea PCI 1001 = test: Antibacterial MIC, standard serial dilution; type: cell-based; conditions: nutrient agar, 37° C., 17 hours, as free base
Serratia marcescens = test: Antibacterial MIC, standard serial dilution; type: cell-based; conditions: nutrient agar, 37° C., 17 hours, as free base
[9] = system: Staphylococcus epidermidis 109; test: Antibacterial MIC, standard serial dilution; type: cell-based; conditions: nutrient agar, 37° C., 17 hours, as free base
[10] = system: Pseudomonas aeruginosa K-Ps 102; test: Antibacterial MIC, standard serial dilution; type: cell-based; conditions: nutrient agar, 37° C., 17 hours, as free base
Escherichia coli NIHJ = test: Antibacterial MIC, standard serial dilution; type: cell-based; conditions: nutrient agar, 37° C., 17 hours, as free base
[11] = system: Escherichia coli K-12 J5R11-2; test: Antibacterial MIC, standard serial dilution; type: cell-based; conditions: nutrient agar, 37° C., 17 hours, as free base
[12] = system: Bacillus subtilis PCI 219; test: Antibacterial MIC, standard serial dilution; type: cell-based; conditions: nutrient agar, 37° C., 17 hours, as free base
[13] = system: Klebsiella pneumoniae PCI602; test: Antibacterial MIC, standard serial dilution; type: cell-based; conditions: nutrient agar, 37° C., 17 hours, as free base
Proteus rettgeri GN311 = test: Antibacterial MIC, standard serial dilution; type: cell-based; conditions: nutrient agar, 37° C., 17 hours, as free base
[14] = system: Staphylococcus aureus Smith; test: Antibacterial MIC, standard serial dilution; type: cell-based; conditions: nutrient agar, 37° C., 17 hours, as free base
Providencia sp. 2991 = test: Antibacterial MIC, standard serial dilution; type: cell-based; conditions: nutrient agar, 37° C., 17 hours, as free base
[15] = system: Escherichia coli K-12 ML1410; test: Antibacterial MIC, standard serial dilution; type: cell-based; conditions: nutrient agar, 37° C., 17 hours, as free base
Serratia sp. SOU = test: Antibacterial MIC, standard serial dilution; type: cell-based; conditions: nutrient agar, 37° C., 17 hours, as free base
[16] = system: Pseudomonas maltophilia GN 907; test: Antibacterial MIC, standard serial dilution; type: cell-based; conditions: nutrient agar, 37° C., 17 hours, as free base
Escherichia coli K-12 = test: Antibacterial MIC, standard serial dilution; type: cell-based; conditions: nutrient agar, 37° C., 17 hours, as free base
Escherichia coli JR225 = test: Antibacterial MIC, standard serial dilution; type: cell-based; conditions: nutrient agar, 37° C., 17 hours, as free base
[17] = system: Pseudomonas aeruginosa H9; test: Antibacterial MIC, standard serial dilution; type: cell-based; conditions: nutrient agar, 37° C., 17 hours, as free base
Serratia sp. 4 = test: Antibacterial MIC, standard serial dilution; type: cell-based; conditions: nutrient agar, 37° C., 17 hours, as free base
[18] = system: Mycobacterium smegmatis ATCC 607; test: Antibacterial MIC, standard serial dilution; type: cell-based; conditions: nutrient agar, 37° C., 17 hours, as free base
[19] = system: Staphylococcus aureus Ap01; test: Antibacterial MIC, standard serial dilution; type: cell-based; conditions: nutrient agar, 37° C., 17 hours, as free base
Proteus vulgaris 0X19 = test: Antibacterial MIC, standard serial dilution; type: cell-based; conditions: nutrient agar, 37° C., 17 hours, as free base
Salmonella typhi T-63 = test: Antibacterial MIC, standard serial dilution; type: cell-based; conditions: nutrient agar, 37° C., 17 hours, as free base
Providencia sp. Pv16 = test: Antibacterial MIC, standard serial dilution; type: cell-based; conditions: nutrient agar, 37° C., 17 hours, as free base
[20] = system: Pseudomonas aeruginosa B-13; test: Antibacterial MIC, standard serial dilution; type: cell-based; conditions: nutrient agar, 37° C., 17 hours, as free base
[21] = system: Shigella dysenteriae JS11910; test: Antibacterial MIC, standard serial dilution; type: cell-based; conditions: nutrient agar, 37° C., 17 hours, as free base
Bacillus anthracis = type: cell-based; conditions: nutrient agar, 37° C., 17 hours, as free base
[22] = system: Pseudomonas aeruginosa A3; test: Antibacterial MIC, standard serial dilution; type: cell-based; conditions: nutrient agar, 37° C., 17 hours, as free base
[23] = system: Bacillus subtilis NRRL B-558; test: Antibacterial MIC, standard serial dilution; type: cell-based; conditions: nutrient agar, 37° C., 17 hours, as free base
[24] = system: Escherichia coli K-12 ML1629; test: Antibacterial MIC, standard serial dilution; type: cell-based; conditions: nutrient agar, 37° C., 17 hours, as free base
Proteus rettgeri GN466 = test: Antibacterial MIC, standard serial dilution; type: cell-based; conditions: nutrient agar, 37° C., 17 hours, as free base
bacteria = conditions: in words; earlier work; cited from earlier work
[25] = system: Klebsiella pneumoniae 22#3038; test: Antibacterial MIC, standard serial dilution; type: cell-based; conditions: nutrient agar, 37° C., 17 hours, as free base
[26] = system: Bacillus cereus ATCC 10702; test: Antibacterial MIC, standard serial dilution; type: cell-based; conditions: nutrient agar, 37° C., 17 hours, as free base
[27] = system: Corynebacterium bovis 1810; test: Antibacterial MIC, standard serial dilution; type: cell-based; conditions: nutrient agar, 37° C., 17 hours, as free base
[28] = system: Pseudomonas aeruginosa PST1; test: Antibacterial MIC, standard serial dilution; type: cell-based; conditions: nutrient agar, 37° C., 17 hours, as free base
[29] = system: Micrococcus flavus FDA 16; test: Antibacterial MIC, standard serial dilution; type: cell-based; conditions: nutrient agar, 37° C., 17 hours, as free base
[30] = system: Pseudomonas aeruginosa ROS 134/PU21; test: Antibacterial MIC, standard serial dilution; type: cell-based; conditions: nutrient agar, 37° C., 17 hours, as free base
Shigella sonnei JS11746 = test: Antibacterial MIC, standard serial dilution; type: cell-based; conditions: nutrient agar, 37° C., 17 hours, as free base
[31] = system: Salmonella enteritidis 1891; test: Antibacterial MIC, standard serial dilution; type: cell-based; conditions: nutrient agar, 37° C., 17 hours, as free base
[32] = system: Escherichia coli JR66/W677; test: Antibacterial MIC, standard serial dilution; type: cell-based; conditions: nutrient agar, 37° C., 17 hours, as free base
[33] = system: Pseudomonas aeruginosa No. 12; test: Antibacterial MIC, standard serial dilution; type: cell-based; conditions: nutrient agar, 37° C., 17 hours, as free base

CNC[C@@H]1CC[C@@H](N)[C@@H](O[C@H]2[C@H](O)[C@H](N(C)C(=O)CN)[C@@H](OC)C[C@H]2N)O1 [B, istamycin B]
MIC [1]: 50 µg/mL (≈ 128 µM) | MIC [2]: 0.78 µg/mL (≈ 2 µM) | MIC [3]: 100 µg/mL (≈ 257 µM) | MIC (Escherichia coli W677): 0.78 µg/mL (≈ 2 µM) | MIC [4]: 100 µg/mL (≈ 257 µM) | MIC [5]: 50 µg/mL (≈ 128 µM) | MIC [6]: 0.39 µg/mL (≈ 1 µM) | MIC [7]: 3.13 µg/mL (≈ 8.04 µM) | MIC [8]: 100 µg/mL (≈ 257 µM) | MIC (Sarcina lutea PCI 1001): 0.39 µg/mL (≈ 1 µM) | MIC (Serratia marcescens): 1.56 µg/mL (≈ 4.01 µM) | MIC [9]: 0.39 µg/mL (≈ 1 µM) | MIC [10]: 50 µg/mL (≈ 128 µM) | MIC (Escherichia coli NIHJ): 0.39 µg/mL (≈ 1 µM) | MIC [11]: 1.56 µg/mL (≈ 4.01 µM) | MIC [12]: 0.39 µg/mL (≈ 1 µM) | MIC [13]: 3.13 µg/mL (≈ 8.04 µM) | MIC (Proteus rettgeri GN311): 0.78 µg/mL (≈ 2 µM) | MIC [14]: 0.39 µg/mL (≈ 1 µM) | MIC (Providencia sp. 2991): 3.13 µg/mL (≈ 8.04 µM) | MIC [15]: 3.13 µg/mL (≈ 8.04 µM) | MIC (Serratia sp. SOU): 25 µg/mL (≈ 64.2 µM) | MIC [16]: 100 µg/mL (≈ 257 µM) | MIC (Escherichia coli K-12): 0.78 µg/mL (≈ 2 µM) | MIC (Escherichia coli JR225): 1.56 µg/mL (≈ 4.01 µM) | MIC [17]: 50 µg/mL (≈ 128 µM) | MIC (Serratia sp. 4): 50 µg/mL (≈ 128 µM) | MIC [18]: 0.78 µg/mL (≈ 2 µM) | MIC [19]: 0.78 µg/mL (≈ 2 µM) | MIC (Proteus vulgaris 0X19): 0.39 µg/mL (≈ 1 µM) | MIC (Salmonella typhi T-63): 0.39 µg/mL (≈ 1 µM) | MIC (Providencia sp. Pv16): 1.56 µg/mL (≈ 4.01 µM) | MIC [20]: > 100 µg/mL | MIC [21]: 3.13 µg/mL (≈ 8.04 µM) | MIC (Bacillus anthracis): 0.78 µg/mL (≈ 2 µM) | MIC [22]: 1.56 µg/mL (≈ 4.01 µM) | MIC [23]: 0.39 µg/mL (≈ 1 µM) | MIC [24]: 1.56 µg/mL (≈ 4.01 µM) | MIC (Proteus rettgeri GN466): 0.78 µg/mL (≈ 2 µM) | antibacterial activity (bacteria): higher antibacterial activity than istamycin A | MIC [25]: 1.56 µg/mL (≈ 4.01 µM) | MIC [26]: 6.25 µg/mL (≈ 16 µM) | MIC [27]: 0.39 µg/mL (≈ 1 µM) | MIC [28]: 50 µg/mL (≈ 128 µM) | MIC [29]: 12.5 µg/mL (≈ 32.1 µM) | MIC [30]: > 100 µg/mL | MIC (Shigella sonnei JS11746): 0.78 µg/mL (≈ 2 µM) | MIC [31]: 3.13 µg/mL (≈ 8.04 µM) | MIC [32]: 1.56 µg/mL (≈ 4.01 µM) | MIC [33]: 50 µg/mL (≈ 128 µM)
